In patent US12077503B2, “Substituted cyclic amides and their use as herbicides” (FMC CORPORATION, priority 2015, dated 2024):

What was measured:
Type in all cases: in vivo
[1] = test system: barnyardgrass (Echinochloa crus-galli); assay: Test A postemergence; conditions: Echinochloa crus-galli, post-emergence, 240 h, Postemergence
How it was run: (§1)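 Visual injury, scored on a 0–100 scale relative to untreated controls, was recorded about 10 d after application. Treatments were a preemergence soil spray over planted seeds or a postemergence spray on plants at the one- to two-leaf stage, 2 to 10 cm tall, all in loam soil–sand blend in the greenhouse.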

[2] = test system: Galium (catchweed bedstraw, Galium aparine); assay: Test A postemergence; conditions: Galium, post-emergence, 240 h, Postemergence
How it was run: as §1

[3] = test system: ragweed (common ragweed, Ambrosia elatior); assay: Test A postemergence; conditions: Ambrosia artemisiifolia, post-emergence, 240 h, Postemergence
How it was run: as §1

corn (Zea mays) = assay: Test A postemergence; conditions: Zea mays, post-emergence, 240 h, Postemergence
How it was run: as §1

[4] = test system: wheat (Triticum aestivum); assay: Test A postemergence; conditions: Triticum aestivum, post-emergence, 240 h, Postemergence
How it was run: as §1

[5] = test system: blackgrass (Alopecurus myosuroides); assay: Test A postemergence; conditions: Alopecurus myosuroides, post-emergence, 240 h, Postemergence
How it was run: as §1

[6] = test system: giant foxtail (Setaria faberii); assay: Test A postemergence; conditions: Setaria faberi, post-emergence, 240 h, Postemergence
How it was run: as §1

[7] = test system: ryegrass, Italian (Italian ryegrass, Lolium multiflorum); assay: Test A postemergence; conditions: Lolium multiflorum, post-emergence, 240 h, Postemergence
How it was run: as §1

[8] = test system: pigweed (Amaranthus retroflexus); assay: Test A postemergence; conditions: Amaranthus retroflexus, post-emergence, 240 h, Postemergence
How it was run: as §1

[9] = test system: barnyardgrass (Echinochloa crus-galli); assay: Test A preemergence; conditions: Echinochloa crus-galli, pre-emergence, 240 h, 0 to 100 scale (0 no effect, 100 complete control), read-out: Plant response rating, Barnyardgrass
How it was run: as §1

[10] = test system: ragweed (common ragweed, Ambrosia elatior); assay: Test A preemergence; conditions: Ambrosia artemisiifolia, pre-emergence, 240 h, 0 to 100 scale (0 no effect, 100 complete control), read-out: Plant response rating, Ragweed
How it was run: as §1

[11] = test system: giant foxtail (Setaria faberii); assay: Test A preemergence; conditions: Setaria faberi, pre-emergence, 240 h, 0 to 100 scale (0 no effect, 100 complete control), read-out: Plant response rating, Foxtail, Giant
How it was run: as §1

[12] = test system: ryegrass, Italian (Italian ryegrass, Lolium multiflorum); assay: Test A preemergence; conditions: Lolium multiflorum, pre-emergence, 240 h, 0 to 100 scale (0 no effect, 100 complete control), read-out: Plant response rating, Ryegrass, Italian
How it was run: as §1

[13] = test system: pigweed (Amaranthus retroflexus); assay: Test A preemergence; conditions: Amaranthus retroflexus, pre-emergence, 240 h, 0 to 100 scale (0 no effect, 100 complete control), read-out: Plant response rating, Pigweed
Kochia (Kochia scoparia) = assay: Test A preemergence; conditions: Bassia scoparia, pre-emergence, 240 h, 0 to 100 scale (0 no effect, 100 complete control), read-out: Plant response rating, Kochia
How it was run: as §1

CN1C[C@H](c2ccc(C(F)(F)F)cc2)[C@@H](C(=O)Nc2cccc(C#N)c2F)C1=O [Compound 1381]
80%: pest or weed control at 125 g/ha ([1]; 125 g ai/ha, visual rating about 10 d after treatment, read-out: Barnyardgrass plant response rating (0 to 100 scale, 0 no effect, 100 complete control)) | pest or weed control at 500 g/ha ([1]; 500 g ai/ha, visual injury, 0 to 100 scale (0 no effect, 100 complete control), approx. 10 d, read-out: Plant response rating, Barnyardgrass) | pest or weed control at 500 g/ha ([10]; 500 g ai/ha, preemergence) | pest or weed control at 500 g/ha (Kochia (Kochia scoparia); 500 g ai/ha, preemergence) | pest or weed control at 125 g/ha (Kochia (Kochia scoparia); Preemergence, 125 g ai/ha)
30%: plant injury at 125 g/ha ([4]; 125 g ai/ha, visual rating about 10 d after treatment, read-out: Wheat plant response rating (0 to 100 scale)) | pest or weed control at 125 g/ha ([12]; Preemergence, 125 g ai/ha)
90%: pest or weed control at 125 g/ha ([6]; 125 g ai/ha, visual rating about 10 d after treatment, read-out: Foxtail, Giant plant response rating (0 to 100 scale)) | pest or weed control at 500 g/ha ([6]; 500 g ai/ha, visual injury, 0 to 100 scale (0 no effect, 100 complete control), approx. 10 d, read-out: Plant response rating, Foxtail, Giant) | pest or weed control at 125 g/ha ([9]; Preemergence, 125 g ai/ha) | pest or weed control at 125 g/ha ([13]; Preemergence, 125 g ai/ha)
100%: pest or weed control at 500 g/ha ([9]; 500 g ai/ha, preemergence) | pest or weed control at 500 g/ha ([11]; 500 g ai/ha, preemergence) | pest or weed control at 125 g/ha ([11]; Preemergence, 125 g ai/ha) | pest or weed control at 500 g/ha ([13]; 500 g ai/ha, preemergence)
60%: pest or weed control at 500 g/ha ([2]; 500 g ai/ha, visual injury, 0 to 100 scale (0 no effect, 100 complete control), approx. 10 d, read-out: Plant response rating, Galium) | pest or weed control at 500 g/ha ([3]; 500 g ai/ha, visual injury, 0 to 100 scale (0 no effect, 100 complete control), approx. 10 d, read-out: Plant response rating, Ragweed) | Corn plant response rating (crop injury, 0 = no effect, 100 = complete kill) at 500 g/ha (corn (Zea mays); 500 g ai/ha, visual injury, 0 to 100 scale (0 no effect, 100 complete control), approx. 10 d) | pest or weed control at 500 g/ha ([5]; 500 g ai/ha, visual injury, 0 to 100 scale (0 no effect, 100 complete control), approx. 10 d, read-out: Plant response rating, Blackgrass) | pest or weed control at 500 g/ha ([7]; 500 g ai/ha, visual injury, 0 to 100 scale (0 no effect, 100 complete control), approx. 10 d, read-out: Plant response rating, Ryegrass, Italian)
50%: pest or weed control at 125 g/ha ([2]; 125 g ai/ha, visual rating about 10 d after treatment, read-out: Galium plant response rating (0 to 100 scale)) | pest or weed control at 125 g/ha ([3]; 125 g ai/ha, visual rating about 10 d after treatment, read-out: Ragweed plant response rating (0 to 100 scale)) | plant injury at 500 g/ha ([4]; 500 g ai/ha, visual injury, 0 to 100 scale (0 no effect, 100 complete control), approx. 10 d, read-out: Plant response rating, Wheat) | pest or weed control at 125 g/ha ([7]; 125 g ai/ha, visual rating about 10 d after treatment, read-out: Ryegrass, Italian plant response rating (0 to 100 scale)) | pest or weed control at 500 g/ha ([12]; 500 g ai/ha, preemergence)
70%: pest or weed control at 125 g/ha ([8]; 125 g ai/ha, visual rating about 10 d after treatment, read-out: Pigweed plant response rating (0 to 100 scale)) | pest or weed control at 500 g/ha ([8]; 500 g ai/ha, visual injury, 0 to 100 scale (0 no effect, 100 complete control), approx. 10 d, read-out: Plant response rating, Pigweed) | pest or weed control at 125 g/ha ([10]; Preemergence, 125 g ai/ha)
40%: plant injury at 125 g/ha (corn (Zea mays); 125 g ai/ha, visual rating about 10 d after treatment, read-out: Corn plant response rating (0 to 100 scale)) | pest or weed control at 125 g/ha ([5]; 125 g ai/ha, visual rating about 10 d after treatment, read-out: Blackgrass plant response rating (0 to 100 scale))
